Data from patent US9359371B2, “Bicyclic substituted pyrimidine compounds” (Xuanzhu Pharma Co., Ltd., priority 2012, dated 2016).
Like-named read-outs stand apart in the source and are kept apart here.

How the values were obtained:
[1] = molecular target: PDE-5A enzyme (Homo sapiens (Human), UniProt O76074); assay: Caliper Mobility-Shift PDE-5A Assay; type: biochemical; settings: Table 1; Avanafil value is the control
[2] = test system: length of New Zealand rabbit's penis; assay: Pharmacological activity in vivo (oral administration, 70 mg/kg, with SNP), rabbit penis length; design: species or system New Zealand rabbits; settings: Table 8; oral 70 mg/kg; SNP 0.2 mg/kg iv 60 min after; 0-180 min
Description: Experiment 7: Assay of Pharmacological Activity In Vivo (Oral Administration)
After accommodating with the environment, the New Zealand rabbits were grabbed everyday. When the rabbits were accustomed to the repeated grabbing, drug administration was began. The animals were randomly divided into groups by weight, with 6 rabbits of each group. […] The corresponding test compounds were orally administrated to animals of each group. The dosage was 70 mg/kg, and the administration volume was 1 mL/kg. SNP (0.2 mg/kg, 0.5 mL/kg) was injected into the auricular veins of rabbits 60 min after the administration of the test compounds. The length of the rabbit's penis was measured with a digital caliper before and 10, 15, 30, 50, 60, 65, 70, 75, 90, 110, 120 and 180 min after the administration. Touch of the rabbit's penis by the caliper was avoided during the measurements.

[3] = test system: length of New Zealand rabbit's penis; assay: Pharmacological activity in vivo (intravenous injection), rabbit penis length; design: species or system New Zealand rabbits; settings: Table 5; iv 10 mg/kg, 1 mL/kg; sodium nitroprussiate 0.2 mg/kg iv 5 min after; 0-120 min
Description: Experiment 5: Assay of Pharmacological Activity In Vivo (Intravenous Injection)
After accommodating with the environment, the New Zealand rabbits were grabbed everyday. When the rabbits were accustomed to the repeated grabbing, drug administration was began. The animals were randomly divided into groups by weight. The test compounds were separately dissolved in menstruum. […] The corresponding test compounds were injected into the auricular veins of animals of each group. The dosage of the compounds in Table 5 was 10 mg/kg, and the administration volume was 1 mL/kg. The dosage of the compounds in Table 6 was 10 mg/kg, and the administration volume was 2 mL/kg. 0.2 mg/kg sodium nitroprussiate was intravenously injected into the rabbits 5 min after the administration of the test compounds, with the administration volume of 0.5 mL/kg.
The length of the rabbit's penis was measured with a digital caliper before and 10, 15, 30, 50, 60, 90 and 120 min after the administration. Touch of the rabbit's penis by the caliper was avoided during the measurements.

[4] = molecular target: PDE-5 enzyme (human blood platelets) (Homo sapiens (Human), UniProt O76074); assay: PDE-5 enzyme assay, [3H]cGMP; type: biochemical
[5] = test system: bovine retinal PDE-6; assay: PDE-6 enzyme assay, [3H]cGMP; type: biochemical
Description: (§1) Experiment 3: Measurement of Enzyme Activity on PDE-6 Enzyme In Vitro
(§2) Source of enzyme: PDE-6, bovine retinal PDE-6
(§3) Method: The test compound or solvent was incubated at 25° C. for 15 min with enzyme solution (0.2 μg/mL) in Tris-HCl buffer of pH 7.5. 100 μM cGMP and 0.03 μM [^3H] cGMP were then added to activate the reaction. The mixture was incubated for 20 min. The reaction was stopped at 100° C. By addition of snake venom nucleotidase, the product [^3H] GMP was converted into [^3H] Guanosine, which was separated with AG1-X2 resin. The amount of [^3H] Guanosine was measured.

[6] = molecular target: bovine retinal PDE-6 (Bos taurus (Bovine), UniProt P11541+P23439); assay: PDE-6 enzyme assay, [3H]cGMP; type: biochemical
Chain of bovine retinal PDE-6 (Bos taurus (Bovine), UniProt P11541+P23439) (P11541 whole entry, looked up): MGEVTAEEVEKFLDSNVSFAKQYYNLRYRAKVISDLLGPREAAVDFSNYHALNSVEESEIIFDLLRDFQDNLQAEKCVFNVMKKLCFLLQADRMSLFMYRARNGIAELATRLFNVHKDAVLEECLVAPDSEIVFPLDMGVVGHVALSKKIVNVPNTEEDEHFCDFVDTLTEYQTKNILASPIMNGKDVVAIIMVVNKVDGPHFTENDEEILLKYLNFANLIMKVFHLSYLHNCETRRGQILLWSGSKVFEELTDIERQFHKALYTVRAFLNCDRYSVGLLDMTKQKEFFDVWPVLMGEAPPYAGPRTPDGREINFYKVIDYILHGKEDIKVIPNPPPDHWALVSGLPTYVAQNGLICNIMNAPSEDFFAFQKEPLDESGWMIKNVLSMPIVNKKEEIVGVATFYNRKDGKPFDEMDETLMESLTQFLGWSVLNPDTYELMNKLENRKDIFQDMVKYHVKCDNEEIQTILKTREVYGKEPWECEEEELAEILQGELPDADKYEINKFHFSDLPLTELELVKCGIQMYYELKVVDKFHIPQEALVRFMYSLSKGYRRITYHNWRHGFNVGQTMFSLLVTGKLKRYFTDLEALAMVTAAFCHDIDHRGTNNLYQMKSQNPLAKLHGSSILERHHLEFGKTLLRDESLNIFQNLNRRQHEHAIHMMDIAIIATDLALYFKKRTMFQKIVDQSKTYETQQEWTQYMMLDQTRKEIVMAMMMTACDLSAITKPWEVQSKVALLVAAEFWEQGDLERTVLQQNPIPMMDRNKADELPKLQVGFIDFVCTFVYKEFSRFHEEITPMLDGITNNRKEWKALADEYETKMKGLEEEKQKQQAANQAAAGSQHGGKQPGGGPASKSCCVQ
Chain of bovine retinal PDE-6 (Bos taurus (Bovine), UniProt P11541+P23439) (P23439 whole entry, looked up): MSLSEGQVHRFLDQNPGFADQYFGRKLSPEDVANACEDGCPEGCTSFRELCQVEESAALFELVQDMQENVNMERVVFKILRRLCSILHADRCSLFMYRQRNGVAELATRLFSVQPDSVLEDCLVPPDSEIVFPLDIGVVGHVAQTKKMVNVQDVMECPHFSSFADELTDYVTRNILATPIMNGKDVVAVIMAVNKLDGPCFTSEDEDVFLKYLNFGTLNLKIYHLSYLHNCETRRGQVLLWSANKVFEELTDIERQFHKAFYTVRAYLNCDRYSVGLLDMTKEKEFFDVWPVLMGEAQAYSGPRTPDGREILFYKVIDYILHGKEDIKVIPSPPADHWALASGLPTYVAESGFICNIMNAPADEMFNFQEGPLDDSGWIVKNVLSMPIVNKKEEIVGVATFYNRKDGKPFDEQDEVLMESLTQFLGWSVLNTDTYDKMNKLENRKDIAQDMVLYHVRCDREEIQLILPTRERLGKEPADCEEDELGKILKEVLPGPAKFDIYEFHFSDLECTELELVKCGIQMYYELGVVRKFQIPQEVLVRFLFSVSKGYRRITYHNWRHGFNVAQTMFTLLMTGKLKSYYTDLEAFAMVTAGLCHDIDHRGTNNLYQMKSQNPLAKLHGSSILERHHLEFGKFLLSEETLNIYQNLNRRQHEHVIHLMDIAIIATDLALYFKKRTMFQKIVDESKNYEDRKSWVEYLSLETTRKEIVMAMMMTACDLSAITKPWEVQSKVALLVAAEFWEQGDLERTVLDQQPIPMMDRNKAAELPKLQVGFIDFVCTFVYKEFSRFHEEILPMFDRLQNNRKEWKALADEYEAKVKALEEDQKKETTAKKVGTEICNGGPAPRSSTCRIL
Description: as §1, §2, §3

Compound: COc1ccc(CNc2nc(N3CC4CC4C3)ncc2C(=O)N[C@H]2CC[C@H](O)CC2)cc1Cl (stereo partly drawn) [Compound 11, 2-(3-azabicyclo[3.1.0]hexan-3-yl)-4-((3-chloro-4-methoxybenzyl)amino)-N-(trans-4-hydroxycyclohexyl)pyrimidine-5-formamide]
- IC50 [1]: 4.02 nM
- AUC of penis length [2]: 540.7 mm × min
- AUC of penis length [3]: 323.3 mm × min
- IC50 ([4]; Table 2-1, repetition, read-out: IC50 on PDE-5 (repetition of Example 2)): 0.41 nM
- IC50 ([4]; Table 2, human blood platelet enzyme, read-out: IC50 on PDE-5): 1.31 nM
- IC50 ([4]; Table 4-1, read-out: PDE-5 (IC50 nM)): 0.41 nM
- Selectivity (PDE-6/PDE-5) ([5]; IC50 for PDE-6/IC50 for PDE-5): 148
- selectivity on PDE-5 enzyme versus PDE-6 (in words) ([5]; selectivity >70 called high): higher selectivity on PDE-5 enzyme than to PDE-6
- IC50 ([6]; Table 3, read-out: IC50 on PDE-6): 61 nM
- IC50 ([6]; Table 4-1, read-out: PDE-6 (IC50 nM)): 61 nM
